Legend:
[1] = tested on: C-26 colon adenocarcinoma cachexia model; test: Combined androgen and AR-42 study (Study 3), C-26 model; type: in vivo, mouse
Experimental: These studies were performed as previously described (Tseng Y C, et al. J Natl Cancer Inst. 2015 107(12):djv274) with modifications. Tumors were established in the right flank by subcutaneous injection of C-26 cells (0.5×10^6 cells in 0.1 mL). […] TFM-4AS-1 (a potent experimental SARM), dihydrotestosterone (DHT) and vehicles were administered by subcutaneous injection.
Six days after cell injection, animals with palpable tumors were treated once daily for 13 days with vehicles for AR-42 and TFM-4AS-1/DHT (n=9), AR-42 (10 mg/kg; TFM-4AS-1/DHT vehicle; n=10), TFM-4AS-1 (10 mg/kg; AR-42 vehicle; n=9), DHT (3 mg/kg; AR-42 vehicle; n=10), the combination of AR-42 and TFM-4AS-1 (10 mg/kg each; n=9), or the combination of AR-42 (10 mg/kg) and DHT (3 mg/kg)(n=10). Grip strength was measured and tissues collected as in the previous studies.
Forelimb grip strength was measured using Bio-GS3 Grip Strength Test Meter (Forceleader DBA Bioseb, Pinellas Park, Fla.). Each mouse was held by the base of its tail and lowered over the apparatus until its forepaws grasped the metal pull bar. The mouse was then gently pulled horizontally in a straight line away from the grip strength meter until the mouse released the bar. The force applied to the bar at the moment of release was recorded as the peak force. Five measurements were taken from each mouse, the average of which was designated as the mouse's grip strength.

[2] = Single dose AR-42 plasma and tissue pharmacokinetics in mouse; type: in vivo; conditions: for Plasma exposure: tumor-free mice
Experimental: FIG. 1A is a graph showing results of a single dose AR-42 plasma and tissue pharmacokinetic study. Tumor-free […] mice were administered a single dose of 10 mg/kg, 20 mg/kg or 50 mg/kg AR-42 (n=3) and plasma (dashed) and gastrocnemius (solid) tissue analyzed for AR-42 content at different times using LC-MS/MS analyses according to Materials and Methods (Mean±SD). FIG. 1B is a graph showing AR-42 dose-response. Starting six days after C-26 cell injection, animals received vehicle or AR-42 orally at 10 or 20 mg/kg daily or 50 mg/kg every other day for 13 days (n=4-6). Day 18 bodyweights compared to Day 0, corrected for tumor mass according to the Materials and Methods. Bars represent mean±SD. *p<0.05, ****p<0.0001 versus tumor-bearing vehicle-treated controls, Tukey's multiple comparison test. FIG. 1C is a table showing AR-42's in vitro human HDAC inhibition profile determined using recombinant enzymatic assays. […] Longitudinal mean bodyweights per treatment group are presented as a percent change from pre-study body weights. Tumor-free animals (circles), tumor-bearing animals (bars). Inset: terminal tumor volumes (mean+SD, n=5-6 per group).
Pharmacokinetic studies were performed as previously described (Cheng H et al. AAPS J. 2016 18(3):737-45).
Pharmacokinetic studies were performed as previously described (Cheng H, et al. AAPS J. 2016 18(3):737-45) with the following modifications. Seven week-old, male, tumor-free CD2F1 mice (n=3 per dose and time point) were administered single oral doses of 10, 20 and 50 mg/kg AR-42 and then sacrificed 0.25, 4 and 24 hours later. Fifty mg of gastrocnemius muscle tissue was flash frozen in 2 mL Beadblaster™ 24 (MIDSCl; St. Louis, Mo.) tubes and stored at −80° C. Samples were homogenized for 6-cycles using a Beadblaster 24 with analytical standards in 1 mL methanol and then centrifuged at 13,000 rpm (4° C.) for 10 min. Supernatants were transferred to glass tubes, dried under nitrogen, then reconstituted in 200 μL 40% methanol/0.1% formic acid. Plasma preparation and LC-MS/MS analyses were performed as previously described (Sborov D W, et al. Leuk Lymphoma 2017 58(10):2310-8). Mouse plasma and muscle pharmacokinetic parameters were estimated as previously described with the exception of Cavg which was calculated as AUCall/[Dosing Interval(h)].

luteinizing hormone = test: Serum luteinizing hormone radioimmunoassay, Study 1; type: in vivo, mouse; conditions: Study 1, Day 18; C-26 tumor bearing mice; GTx-024 15 mg/kg
Experimental: FIG. 9A is a bar graph showing serum luteinizing hormone levels measured on Day 18. FIG. 9B is a graph showing per animal food consumption measured every two days. FIG. 9C is a plot showing spleen weights normalized to tumor mass-corrected terminal body weight. […], versus tumor-bearing vehicle-treated controls, Dunnett's multiple comparison test.
Luteinizing hormone (LH) was measured in serum by a two-site sandwich radioimmunoassay performed by the Ligand Assay and Analysis Core at the Center for Research in Reproduction, University of Virginia School of Medicine (Charlottesville, Va.). Serum was isolated by centrifugation (2000×g, 15 minutes) from whole blood samples collected from mice immediately post-mortem, and then stored at −80° C. until shipment on dry ice.

SMILES | terminal body weight ([1]; Study 3, Day 17, of baseline, C-26 tumor-bearing, AR-42 10 mg/kg oral, TFM-4AS-1 10 mg/kg s.c., DHT 3 mg/kg s.c.) | effect on mass of gastrocnemius or quadriceps ([1]; Study 3, monotherapy (TFM-4AS-1 10 mg/kg; AR-42 10 mg/kg)) | concentration at 4 h ([2]; male, mouse, in vivo, single oral dose 10 mg/kg, remained above for 4 hours, read-out: gastrocnemius muscle concentrations) [nM] | mouse plasma exposure at 50 mg/kg relative to well tolerated plasma exposure in humans ([2]; oral 50 mg/kg in mice versus 8.5 μM*h in humans) [fold] | Plasma exposure ([2]; single oral dose 10 mg/kg) [µM·h] | Plasma exposure ([2]; single oral dose 50 mg/kg) [µM·h] | serum luteinizing hormone (luteinizing hormone)
CC(C)[C@H](C(=O)Nc1ccc(C(=O)NO)cc1)c1ccccc1 [AR-42, (S)—N-hydroxy-4-(3-methyl-2-phenylbutanamido)benzamide] | 93.5±4.8 | did not significantly impact skeletal muscle masses | > 700 | 8.7 | 10.9 | 74.3 | –
C[C@](O)(COc1ccc(C#N)cc1)C(=O)Nc1ccc(C#N)c(C(F)(F)F)c1 [GTx-024, (2S)-3-(4-cyanophenoxy)-N-(4-cyano-3-(trifluoromethyl)phenyl)-2-hydroxy-2-methylpropanamide] | – | – | – | – | – | – | suppression of serum luteinizing hormone
